Measurements: patent publication US12458640B2, “Pyrazolo[3,4-b]pyrazine SHP2 phosphatase inhibitors” (OTSUKA PHARMACEUTICAL CO., LTD., priority 2019, dated 2025)

What was measured:
SHP2 = SHP2 (Homo sapiens (Human), UniProt Q06124); experiment: Shp2 Biochemical Assay (DiFMUP conversion); conditions: 10 pM SHP2, activating peptide pIRS1, DiFMUP substrate; average where more than one data point
Protocol: SHP2 activity was monitored by measuring the conversion of the surrogate substrate 6,8-difluoromethylumbelliferyl phosphate (DiFMUP) to the fluorescent product, 6,8-difluoromethylumbelliferone (DiFMU).
SHP2 was pre-incubated with test compounds and the activating peptide pIRS1 (H2N-LN(pY)IDLDLV-(PEG)8-LST(pY)ASINFQK-amide) for 30 min, prior to addition of the 6,8-difluoromethylumbelliferyl phosphate (DiFMUP), (Thermo Fisher D6567). Final assay concentrations were 10 pM SHP2, 0.25 μM pIRS1 peptide, 50 μM DiFMUP, 25 mM Bis-Tris propane, pH 7.0, 150 mM NaCl, 0.05% (v/v) Tween-20, 0.5 mM TCEP and 5% (v/v) DMSO. Rates of reaction were then measured over 30 min by monitoring fluorescence on a BMG Pherastar reader at excitation 360 nm/emission 450 nm. IC50 values were calculated from the normalized dose-response plots using four parameter logistic curve fit.

pERK = experiment: Cellular pERK Inhibition Assay (phospho-p44/42 MAPK sandwich ELISA); format: cell-based; conditions: Homo sapiens; HCC827 cells, 0.5 hours compound treatment; average where more than one data point
Protocol: Cellular pERK Inhibition Assay
HCC827 cells (ATCC, Manassas, USA) were seeded into 96-well plates at a density of 1×10^5 cells/well in RPMI medium supplemented with 10% FBS and incubated 24 h. Compounds were diluted first in DMSO and then into serum-free medium, before being added to cells in triplicate to give a final concentration of 0.1% DMSO. Plates were incubated at 37° C. for 0.5 hours in a humidified atmosphere of 5% CO2 in air.
Following compound treatment, medium was removed and cells were lysed by adding 50 μL of lysis buffer (Cell Signalling Technology, Beverly, USA) to each well. Plates were then incubated at room temperature for 25 minutes with shaking. pERK levels were measured in lysates using the PathScan® phospho-p44/42 MAPK (Thr202/Tyr204) sandwich ELISA (Cell Signalling Technology, Beverly, USA) as per kit instructions. Briefly, 50 μL of cell lysate was added to 50 μL of ELISA sample diluent in a 96-well ELISA plate and incubated overnight at 4° C. Following washing, 100 μL of detection antibody was added per well and the plates incubated for 1 hour at 37° C. Plates were washed again and incubated at 37° C. for 30 minutes with 100 μl of HRP-linked secondary antibody per well. After final washing, 100 μL per well of TMB substrate was added and plates incubated at 37° C. to develop colour. Colour development was stopped by the addition of 100 μL per well of stop solution. Plates were read at 450 nm on a SpectraMax Gemini reader (Molecular Devices, Uckfield, UK).
The average signal from blank wells (no cells added) was subtracted from the signals from each sample well. Levels of pERK were then expressed as “percent of control”, using DMSO treated samples as control. Dose response curves were generated using GraphPad Prism Version 6 (GraphPad Software, La Jolla, USA) and fitted using the four parameter logistic curve fit.

SHP2, sequence (Q06124 whole entry): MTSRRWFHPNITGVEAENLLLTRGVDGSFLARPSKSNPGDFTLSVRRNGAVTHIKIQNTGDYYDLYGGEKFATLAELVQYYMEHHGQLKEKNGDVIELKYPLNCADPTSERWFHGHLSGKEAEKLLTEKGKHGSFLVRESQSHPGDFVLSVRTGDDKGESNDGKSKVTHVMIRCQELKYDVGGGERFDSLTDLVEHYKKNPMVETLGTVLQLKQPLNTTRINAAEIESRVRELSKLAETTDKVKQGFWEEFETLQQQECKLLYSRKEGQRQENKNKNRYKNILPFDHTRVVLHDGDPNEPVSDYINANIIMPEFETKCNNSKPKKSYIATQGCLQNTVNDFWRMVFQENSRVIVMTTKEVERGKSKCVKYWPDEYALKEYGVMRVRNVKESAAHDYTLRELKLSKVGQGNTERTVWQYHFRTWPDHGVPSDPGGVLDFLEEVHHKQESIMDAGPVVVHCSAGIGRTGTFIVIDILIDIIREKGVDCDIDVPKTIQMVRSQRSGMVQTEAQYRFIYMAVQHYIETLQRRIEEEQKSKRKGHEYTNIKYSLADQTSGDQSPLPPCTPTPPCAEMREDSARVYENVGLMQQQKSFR

For `COc1cnc2ccc(-c3n[nH]c4nc(N5CCC6(CC5)CO[C@@H](C)[C@H]6N)c(CO)nc34)c(Cl)c2n1` [Example 22, {6-[(3S,4S)-4-amino-3-methyl-2-oxa-8-azaspiro[4.5]decan-8-yl]-3-(5-chloro-3-methoxyquinoxalin-6-yl)-1H-pyrazolo[3,4-b]pyrazin-5-yl}methanol], which IC50 (SHP2) is on record?
The IC50 was 11 nM.

And the IC50 (pERK)?
The IC50 was 8.4 nM.

What does the source list for `C[C@@H]1OCC2(CCN(c3nc4[nH]nc(-c5cccc(Cl)c5F)c4nc3CO)CC2)[C@@H]1N` [Example 23, {6-[(3S,4S)-4-amino-3-methyl-2-oxa-8-azaspiro[4.5]decan-8-yl]-3-(3-chloro-2-fluorophenyl)-1H-pyrazolo[3,4-b]pyrazin-5-yl}methanol]?
IC50 (SHP2): 5.4 nM; IC50 (pERK): 5.8 nM

How did the IC50 (SHP2) turn out when `C[C@@H]1OCC2(CCN(c3nc4[nH]nc(-c5ccccc5Cl)c4nc3CO)CC2)[C@@H]1N` [Example 24, {6-[(3S,4S)-4-amino-3-methyl-2-oxa-8-azaspiro[4.5]decan-8-yl]-3-(2-chlorophenyl)-1H-pyrazolo[3,4-b]pyrazin-5-yl}methanol] was run?
The IC50 was 11 nM.

What about the IC50 (pERK) of the same compound?
The IC50 was 6.4 nM.

For `Cc1nc2c(-c3ccc4ncc(N5CCC5)nc4c3Cl)n[nH]c2nc1N1CCC2(CC1)CO[C@@H](C)[C@H]2N` [Example 25, (3S,4S)-8-{3-[3-(azetidin-1-yl)-5-chloroquinoxalin-6-yl]-5-methyl-1H-pyrazolo[3,4-b]pyrazin-6-yl}-3-methyl-2-oxa-8-azaspiro[4.5]decan-4-amine], which IC50 (SHP2) is on record?
Its IC50 is 24 nM.

What about the IC50 (pERK) of the same compound?
The IC50 was 28 nM.

Which results are given for `Cc1nc2c(-c3ccc4ncc(N5CCOCC5)nc4c3Cl)n[nH]c2nc1N1CCC2(CC1)CO[C@@H](C)[C@H]2N` [Example 26, (3S,4S)-8-{3-[5-chloro-3-(morpholin-4-yl)quinoxalin-6-yl]-5-methyl-1H-pyrazolo[3,4-b]pyrazin-6-yl}-3-methyl-2-oxa-8-azaspiro[4.5]decan-4-amine]?
IC50 (SHP2): 28 nM; IC50 (pERK): 18 nM
